Assay results published in US9801850B2, “Antibacterial agent” (OSAKA UNIVERSITY, priority 2009, dated 2017).
Converted amounts (≈) assume the structure as drawn.

Legend:
[1] = system: MRSA clinical isolate No. 8; test: MIC, broth microdilution (Example 2, Table 6); format: cell-based, Staphylococcus aureus
[2] = system: MRSA clinical isolate No. 11; test: MIC, broth microdilution (Example 2, Table 6); format: cell-based, Staphylococcus aureus
[3] = system: MRSA clinical isolate No. 12; test: MIC, broth microdilution (Example 2, Table 6); format: cell-based, Staphylococcus aureus
[4] = system: MSSA clinical isolate No. 3; test: MIC, broth microdilution (Example 2, Table 6); format: cell-based, Staphylococcus aureus
[5] = system: MSSA clinical isolate No. 1; test: MIC, broth microdilution (Example 2, Table 6); format: cell-based, Staphylococcus aureus
[6] = system: MRSA clinical isolate No. 7; test: MIC, broth microdilution (Example 2, Table 6); format: cell-based, Staphylococcus aureus
[7] = system: MSSA clinical isolate No. 5; test: MIC, broth microdilution (Example 2, Table 6); format: cell-based, Staphylococcus aureus
Aspergillus fumigatus = test: MIC with respect to fungi, broth microdilution (Table 8); format: cell-based; details: Aspergillus fumigatus clinical isolate; RPMI1640/MOPS (pH 7.0), 35° C., 24 to 48 hours
Method: (§1) Regarding the respective type strains shown in Tables 7 and 8 below, the MIC measurement was performed using the antibacterial agent solutions of Example 2 in the same manner as described in Section (2) of Example 1, except for the following. The antibacterial agent solutions were prepared by dissolving the EGCG derivatives of Example 2 in 100% DMSO and then diluting the resultant mixtures with sterile distilled water. The respective strains were derived from ATCC or NCTC. As Moraxella catarrhalis and Aspergillus fumigatus, clinical isolates thereof without an acquired resistance mechanism were used. For nutrient-rich bacteria, namely, Streptococcus pneumoniae ATCC49619, Streptococcus pyogenes ATCC19615, Streptococcus agalactiae ATCC13813, Moraxella catarrhalis, and Haemophilis influenzae ATCC49766, Strepto Haemo supplement (Eiken Chemical Co., Ltd.) was added to media for culturing them. The MIC measurement with respect to fungi was carried out by a broth microdilution method using a RPMI1640/MOPS (pH 7.0) medium in accordance with CLSI guidelines. About 2×10^3 cells/ml of fungi were inoculated to the medium. After the culture at 35° C. for 24 to 48 hours, the MIC was determined. Also, regarding the antibacterial agent solution of Comparative Example 2, the MIC was measured in the same manner.

[8] = system: Candida parapsilosis ATCC22019; test: as above; format: cell-based; details: RPMI1640/MOPS (pH 7.0), 35° C., 24 to 48 hours
Method: as §1

Candida krusei ATCC6258 = test: as above; format: cell-based; details: RPMI1640/MOPS (pH 7.0), 35° C., 24 to 48 hours
Method: as §1

[9] = system: Cryptococcus neoformans ATCC90112; test: as above; format: cell-based; details: RPMI1640/MOPS (pH 7.0), 35° C., 24 to 48 hours
Method: as §1

[10] = system: Candida tropicalis ATCC750; test: as above; format: cell-based; details: RPMI1640/MOPS (pH 7.0), 35° C., 24 to 48 hours
Method: as §1

[11] = system: Candida albicans ATCC24433; test: as above; format: cell-based; details: RPMI1640/MOPS (pH 7.0), 35° C., 24 to 48 hours
Method: as §1

[12] = system: Candida glabrata ATCC90030; test: as above; format: cell-based; details: RPMI1640/MOPS (pH 7.0), 35° C., 24 to 48 hours
Method: as §1

[13] = system: Enterobacter cloacae ATCC13047; test: Antibacterial spectrum MIC (Table 7); format: cell-based
Method: (§2) Methicillin-susceptible Staphylococcus aureus (MSSA) NCTC8325 and methicillin-resistant Staphylococcus aureus (MRSA) ATCC43300 were used as bacteria. The bacteria of each type were cultured using Mueller-Hinton Broth (MH-broth, Difco) as a medium. Then, the minimum inhibitory concentration (MIC) of each of the EGCG derivatives was measured by a broth microdilution method in accordance with the Clinical and Laboratory Standards Institute (CLSI) guidelines (hereinafter the same).
(§3) First, each of the EGCG derivatives was dissolved in 100% dimethyl sulfoxide (DMSO, Wako Pure Chemical Industries, Ltd.) so that the concentration thereof became 5120 μg/ml. The resultant solution was diluted with DMSO or sterile distilled water so as to prepare two-fold dilution series of antibacterial agent solutions. […] Each of these antibacterial agent solutions was dispensed to wells of a 96-well plate. The concentration of the EGCG derivative in the antibacterial agent solution dispensed to the wells was set to be 10 times as high as the final concentration. On the other hand, the bacteria were cultured in the MH-broth at 37° C. overnight, and the thus-obtained pre-culture solution was diluted with a new MH-broth so that the concentration thereof in the MH-broth became 10^−4 (10^4-fold dilution), thus preparing a bacterial culture solution of about 1×10^5 CFU/ml (CFU: Colony Forming Unit, the number of viable cells). The bacterial culture solution was further added to each well, and the mixture was cultured at 37° C. for 18 hours. The ratio (volume ratio) between the antibacterial agent solution and the bacterial culture solution added to each well was set to 1:9 (the antibacterial agent solution:the bacterial culture solution), and the volume of the mixture of them per well was set to 100 μl in total. The final concentration of the EGCG derivative in the mixture was set to 8 μg/ml to 512 μg/ml, and the number of viable cells in the mixture was set to about 1×10^5 CFU/ml. Then, after the completion of the culture, the MIC was determined. Also, the turbidity (OD600 nm) was measured using a plate reader so as to identify minor differences.
as §1

MRSA ATCC43300 = test: MIC, broth microdilution (Example 2, Table 6); format: cell-based, Staphylococcus aureus
Method: as §2, §3
(§4) Each of the EGCG derivatives was dissolved in 100% DMSO so that the concentration thereof became 1280 μg/ml. The thus-obtained solutions were diluted with sterile distilled water, thus preparing antibacterial agent solutions.
(§5) As Comparative Example 2, the same procedures as in Example 2 were performed, except that unsubstituted EGCG was used as an antibacterial agent instead of the EGCG derivatives of Example 2. Furthermore, as a control, the same procedures as in Example 2 were performed, except that sterile distilled water was used instead of the antibacterial agent solutions containing the EGCG derivatives.

[14] = system: S. aureus NCTC8325 (MSSA); test: MIC, broth microdilution (Example 2, Table 6); format: cell-based, Staphylococcus aureus
Method: as §2, §3, §4, §5

MSSA ATCC12600 = test: MIC, broth microdilution (Example 2, Table 6); format: cell-based, Staphylococcus aureus

Compound	MIC [1] [mg/L]	MIC [2] [mg/L]	MIC [3] [mg/L]	MIC [4] [mg/L]	MIC [5] [mg/L]	MIC [6] [mg/L]	MIC [7] [mg/L]	MIC (Aspergillus fumigatus) [mg/L]	MIC [8] [mg/L]	MIC (Candida krusei ATCC6258) [mg/L]	MIC [9] [mg/L]	MIC [10] [mg/L]	MIC [11] [mg/L]	MIC [12] [mg/L]	MIC [13] [mg/L]	MIC (MRSA ATCC43300) [mg/L]	MIC [14] [mg/L]	MIC (MSSA ATCC12600) [mg/L]
O=C(O[C@@H]1Cc2c(O)cc(O)cc2O[C@@H]1c1cc(O)c(O)c(O)c1)c1cc(O)c(O)c(O)c1 [EGCG, Epigallocatechin gallate, reference compound]	128 (≈ 279 µM)	>128	>128	>128	>128	>128	128 (≈ 279 µM)	64 (≈ 140 µM)	64 (≈ 140 µM)	64 (≈ 140 µM)	64 (≈ 140 µM)	64 (≈ 140 µM)	64 (≈ 140 µM)	32 (≈ 69.8 µM)	128 (≈ 279 µM)	>128	128 (≈ 279 µM)	>128
EGCG-stearate [EGCG-C18]	16	64	64	32	32	32	32	32	16	16	16	32	16	16	64	32	16	32
EGCG-linolate [EGCG-C18DE]	8	32	16	16	16	16	16	32	16	16	8	32	16	–	64	16	16	16
EGCG-palmitate [EGCG-C16]	8	32	16	16	16	16	16	32	16	16	8	32	32	16	64	16	8	16
EGCG-dioctanoate [EGCG-C8×2]	4	32	16	16	16	16	16	32	16	16	16	32	32	16	64	16	4	8
EGCG-α-linoleate [EGCG-C18TE]	8	64	16	16	16	16	16	16	16	16	8	16	16	–	64	16	4	16
EGCG-oleate [EGCG-C18E]	8	64	32	32	32	16	32	32	16	16	16	32	16	16	64	32	16	32
EGCG-palmitoleate [EGCG-C16E]	8	64	16	16	16	16	16	16	16	16	8	16	16	16	64	16	16	16
